According to publication PMC9014415, “Repositioning of a Diaminothiazole Series Confirmed to Target the Cyclin-Dependent Kinase CRK12 for Use in the Treatment of African Animal Trypanosomiasis” (Journal of Medicinal Chemistry, 2022):
Values joined by “and” are separate entries in the source; they are usually repeats but may differ in a detail not shown here. Identical values can stand only once.

Key:
[1] = system: MAP kinase 9, putative (MAPK9); assay: SILAC pull-down with resin-bound 13, competition by compound 2; type: binding, Trypanosoma brucei; settings: procyclic lysate; compound 2 10 μM vs DMSO; mean of three experiments
Protocol: (§1) Chemical proteomic studies were carried out by immobilizing an analogue of compound 2 (probe 13; Figure 3A and Scheme 4) to magnetic beads via a polyethyleneglycol (PEG) linker. Appropriate attachment sites for the PEG linker were informed by the established structure–activity relationships within this series, and an advanced intermediate toward the final derivatized compound was screened against both bloodstream and procyclic forms of T. brucei to ensure that it retained potency. The analogue was immobilized by attachment to NHS-ester-activated paramagnetic beads. Activated beads were then incubated in SILAC (stable isotope labeling by amino acids in cell culture)-labeled T. brucei procyclic whole-cell lysates in the presence or absence of compound 2 (10 μM) with either “light-“ or “heavy”-labeled lysate. After combining the eluates from the beads and performing proteomic analyses, proteins that bound specifically to the diaminothiazole pharmacophore were distinguished from proteins that bound non-specifically to the beads by virtue of compound 2:DMSO tryptic peptide isotope ratios. As a result of these studies, four kinases and a cyclin were identified as specific binders of the compound 2-derivatized beads (Figure 3B and Table S11). It should be noted that of the four kinases identified, only CRK12 has been established as essential for survival of T. brucei.[14] […]
(§2) Trypanosoma brucei procyclic form parasites were grown in SDM-79 media (SILAC SDM-79, 2 g/L NaHCO3, 7.5 mg haemin, 1% glutamax and 15% dialysed FBS) with either light or heavy isotopes for 6-9 divisions (6 days) to a density of ~3 x 10^7 cells/ml. A total of 3 x10^8 cells were washed thrice with PBS. Buffer 1 (0.1 mM tosyl phenylalanyl chloromethyl ketone, 1 µg/ml leupeptin, 1 mM aprotinin, 1 mM phenylmethylsulfonyl fluoride, 1x Roche Complete protease inhibitors) was added to the parasite pellet, followed by Buffer 2 (100 mM Tris pH 7.5, 10% glycerol, 300 mM NaCl, 3 mM MgCl2, 1.6% IGEPAL® CA-630, 2 mM dithiothreitol) and incubated at 4 °C for 20 min. Lysates were centrifuged at 100,000 g at 4 °C for 1 h. Beads (blank and compound-bound) were washed twice with water and twice with lysis buffer (Buffer 1 and 2). Lysates were incubated with 2 mg blank beads for 30 min at 4 °C. Lysates were then incubated with either 10 µM DDD00770675 or 1% DMSO for 30 min at 4 °C. Finally, lysates were incubated with 2 mg of bound compound for 1 h at 4 °C. Beads were washed three times with wash buffer (0.5% IGEPAL® CA-630, 50 mM Tris pH 8.0, 5 mM EDTA, 1 mg/ml BSA) and twice with Tris-buffered saline. Samples were combined, run 1.5 cm into a Brs-TRIS 10% acrylamide gel and stained with Coomassie quick reagent for 1 h. Gel bands were subjected to in-gel reduction with 10 mM dithiothreitol, alkylation with 50 mM iodoacetamide and digestion with 12.5 μg/mL trypsin (Pierce) for >16h at 37°C. Recovered tryptic peptides were vacuum […]
(§3) 4.5 Peptide fractionation and LC-MS/MS analysis
(§4) Peptides were fractionated using High pH RP Chromatography. A C18 Column from Waters (XBridge peptide BEH, 130Å, 3.5 µm 2.1 x 150 mm, Waters, Ireland) with a guard column (XBridge, C18, 3.5 µm, 2.1 ×10 mm, Waters) were used on a Ultimate 3000 HPLC (Thermo-Scientific). Buffers A and B used for fractionation consist, respectively, of (A) 10mM ammonium formate in milliQ water pH 9.5 and (B) 10 mM ammonium formate, pH 9.5 in 90% acetonitrile. Fractions were collected using a WPS-3000FC auto-sampler (Thermo-Scientific) at 1 min intervals. Column and guard column were equilibrated with 2% Buffer B for twenty minutes at a constant flow rate of 0.2 mL/min. Peptides (190 µL) were injected onto the column, and the separation gradient was started 1 min after sample was loaded onto the column. Peptides were eluted from the column with a gradient of 2% Buffer B to 60% Buffer B in 53 min. The column was washed for 15 min in 100% Buffer B and equilibrated at […]
(§5) 2% Buffer B for 20 min. […]

[2] = system: Cdc-2 related kinase 11 (CRK11); assay: as above; type: binding, Trypanosoma brucei; settings: procyclic lysate; compound 2 10 μM vs DMSO; mean of three experiments
Protocol: as §1, §2, §3, §4, §5

[3] = system: Cdc2-related kinase 12 (CRK12); assay: as above; type: binding, Trypanosoma brucei; settings: procyclic lysate; compound 2 10 μM vs DMSO; mean of three experiments
Protocol: as §1, §2, §3, §4, §5

MAP kinase 6 (MAPK6) = assay: as above; type: binding, Trypanosoma brucei; settings: procyclic lysate; compound 2 10 μM vs DMSO; mean of three experiments
Protocol: as §1, §2, §3, §4, §5

MAP kinase 4 (MAPK4) = assay: as above; type: binding, Trypanosoma brucei; settings: procyclic lysate; compound 2 10 μM vs DMSO; mean of three experiments
Protocol: as §1, §2, §3, §4, §5

Cyclin 9 (CYC9) = assay: as above; type: binding, Trypanosoma brucei; settings: procyclic lysate; compound 2 10 μM vs DMSO; mean of three experiments
Protocol: as §1, §2, §3, §4, §5

[4] = system: Inositol polyphosphate kinase-like protein (IPPK); assay: as above; type: binding, Trypanosoma brucei; settings: procyclic lysate; compound 2 10 μM vs DMSO; mean of three experiments
Protocol: as §1, §2, §3, §4, §5

T. congolense = assay: Cattle efficacy for compound 2, intramuscular (CIRDES), T. congolense; type: in vivo, Trypanosoma congolense
Protocol: Compound 2 was progressed into IM efficacy studies dosing at 10 mg/kg either once or twice, 15 h apart, in cattle infected with T. congolense or T. vivax. […]
3.5 Cattle efficacy for compound 2, intramuscular (CIRDES)
Felani-zebu cattle were housed in a fly-proof facility, acclimatised for 15 d prior to the study, cattle were treated with an anthelmintic, an ectoparasiticide and an antibiotic. Donor animals were infected with stabilates (frozen stocks) of either T. congolense KOT256 (resistant to 7 mg/kg diminazene in cattle) or T. vivax Gando Bongaly (resistant to diminazene 7 mg/kg and to isometamidium 1 mg/kg […]
in cattle). Blood from the donor animals, diluted with phosphate buffered glucose was used to infect recipient animals IV via the jugular vein. Infection was with approximately 100,000 fresh viable parasites. The compounds were given IM. Each injection was up to 10 mL and given in neck in the following order: left anterior third, right anterior third, left posterior third and right posterior third.
Animals over 240 kg required a fifth injection site for the IVP, and this was given in the left or right hind leg. Cattle were randomised to treatments. Parasitaemia was monitored 3 times per calendar week, though collection of blood and assessment of clinical symptoms. Blood samples were also […]
treatment). […]

`CC(C)CS(=O)(=O)N[C@H]1CC[C@H](Nc2nc(N)c(C(=O)c3c(F)cc(CN(C)C)cc3F)s2)CC1` [Compound 2, N-(trans)-[4-[[4-Amino-5-[4-(dimethylaminomethyl)-2,6-difluoro-benzoyl]thiazol-2-yl]amino]cyclohexyl]-2-methyl-propane-1-sulfonamide] was tested, and the “Log2 ratio DMSO/compound” value [1] was 4.15, the “Log2 ratio DMSO/compound” value [2] was 3.57 and the “Log2 ratio DMSO/compound” value [3] was 3.47. For the same compound, the “Log2 ratio DMSO/compound” value (MAP kinase 6 (MAPK6)) was 1.62, the “Log2 ratio DMSO/compound” value (MAP kinase 4 (MAPK4)) was 2.84 and the “Log2 ratio DMSO/compound” value (Cyclin 9 (CYC9)) was 3.16. For the same compound, the “Log2 ratio DMSO/compound” value [4] was 1.85, the Cattle cured (T. congolense; 10 mg/kg IM twice, 15 h apart, treatment groups T2 and T4 together) was “three out of the eight” and the efficacy (T. congolense; T1, 10 mg/kg IM once, cured/animals, 100 days) was 0/6. For the same compound, the “Efficacy, individual animals” value (T. congolense; T1 single dose IM, animals 1903, 1910, 1913, 1924, 1935, 1936) was “no”, the efficacy (T. congolense; T2, 10 mg/kg IM twice, 15 h apart, cured/animals) was 1/4 and the “Efficacy, individual animals” value (T. congolense; T2 dosed twice IM, animals 1905, 1906, 1909, 1917) was “no (3×) and yes”. The efficacy (T. congolense; T4, saline twice, followed by compound 2 rescue dose twice IM 5 days later) was 2/4 and the “Efficacy, individual animals” value (T. congolense; T4 after 2 (two rescue doses IM), animals 1914, 1921, 1923, 1927) was “no (2×) and yes (2×)”.
